Columns and labels:
Type in all cases: functional, cell-based
[1] = test system: A2780; assay: Cytotoxicity against human A2780 cells after 72 hrs by MTT assay; conditions: A2780, 72 h
[2] = test system: MCF7; assay: Cytotoxicity against human MCF7 cells after 72 hrs by MTT assay; conditions: MCF7, 72 h
[3] = test system: A549; assay: Cytotoxicity against human A549 cells after 72 hrs by MTT assay; conditions: A549, 72 h
[4] = test system: Bel-7402; assay: Cytotoxicity against human Bel7402 cells after 72 hrs by MTT assay; conditions: Bel-7402, 72 h
[5] = test system: BXPC-3; assay: Cytotoxicity against human BxPC3 cells after 72 hrs by MTT assay; conditions: BXPC-3, 72 h
[6] = test system: HCT-8; assay: Cytotoxicity against human HCT8 cells after 72 hrs by MTT assay; conditions: HCT-8, 72 h
[7] = test system: SW1990; assay: Cytotoxicity against human SW1990 cells after 72 hrs by MTT assay; conditions: SW1990, 72 h
[8] = test system: Capan-2; assay: Cytotoxicity against human Capan2 cells after 72 hrs by MTT assay; conditions: Capan-2, 72 h
[9] = test system: PANC-1; assay: Cytotoxicity against human PANC1 cells after 72 hrs by MTT assay; conditions: PANC-1, 72 h
[10] = test system: HL-60; assay: Cytotoxicity against human HL60 cells after 72 hrs; conditions: HL-60, 72 h

**Q.** What does the source list for CO[C@]1(CC[C@@H](C)CO)O[C@H]2C[C@H]3[C@@H]4CC=C5C[C@@H](O[C@H]6O[C@H](CO)[C@@H](O)[C@H](O[C@@H]7O[C@H](CO)[C@@H](O)[C@H](O)[C@H]7O)[C@H]6O[C@@H]6O[C@@H](C)[C@H](O)[C@@H](O)[C@H]6O)CC[C@]5(C)[C@H]4CC[C@]3(C)[C@H]2[C@@H]1C?
**A.** IC50 [1]: 7.1 µM; IC50 [2]: 1200 nM; IC50 [3]: 890 nM; IC50 [4]: 920 nM; IC50 [5]: 1000 nM; IC50 [6]: 1300 nM; IC50 [7]: 900 nM; IC50 [8]: 1100 nM; IC50 [9]: 820 nM

**Q.** Which IC50 [1] does the source give for CO[C@]1(CC[C@@H](C)CO)O[C@H]2C[C@H]3[C@@H]4CC=C5C[C@@H](O[C@@H]6O[C@H](CO)[C@@H](O)[C@H](O)[C@H]6O[C@@H]6O[C@@H](C)[C@H](O)[C@@H](O)[C@H]6O)CC[C@]5(C)[C@H]4CC[C@]3(C)[C@H]2[C@@H]1C here?
**A.** 7.2 µM

**Q.** What about the IC50 [2] of the same compound?
**A.** 2890 nM

**Q.** And the IC50 [3]?
**A.** 1080 nM

**Q.** And the IC50 [4]?
**A.** 900 nM

**Q.** What about the IC50 [5] of the same compound?
**A.** 1010 nM

**Q.** What about the IC50 [6] of the same compound?
**A.** 1020 nM

**Q.** What about the IC50 [7] of the same compound?
**A.** 660 nM

**Q.** What about the IC50 [8] of the same compound?
**A.** 1070 nM

**Q.** What about the IC50 [9] of the same compound?
**A.** 830 nM

**Q.** What does the source list for CO[C@]1(CC[C@@H](C)CO)O[C@H]2C[C@H]3[C@@H]4CC=C5C[C@@H](O[C@H]6O[C@H](CO)[C@@H](O)[C@H](O)[C@H]6O[C@@H]6O[C@@H](C)[C@H](O)[C@@H](O)[C@H]6O)CC[C@]5(C)[C@H]4CC[C@]3(C)[C@H]2[C@@H]1C?
**A.** IC50 [1]: 7.8 µM; IC50 [2]: 2650 nM; IC50 [3]: 1480 nM; IC50 [4]: 940 nM; IC50 [5]: 1040 nM; IC50 [6]: 1260 nM; IC50 [7]: 730 nM; IC50 [8]: 1360 nM; IC50 [9]: 870 nM

**Q.** What does the source list for C[C@@H]1CC[C@@]2(OC1)O[C@H]1C[C@H]3[C@@H]4CC=C5C[C@@H](O[C@H]6O[C@H](CO)[C@@H](O)[C@H](O)[C@H]6O[C@@H]6O[C@@H](C)[C@H](O)[C@@H](O)[C@H]6O)CC[C@]5(C)[C@H]4CC[C@]3(C)[C@H]1[C@@H]2C?
**A.** IC50 [1]: > 10 µM; IC50 [2]: > 10000 nM; IC50 [3]: > 10000 nM; IC50 [4]: > 10000 nM; IC50 [5]: > 10000 nM; IC50 [6]: > 10000 nM; IC50 [7]: > 10000 nM; IC50 [8]: > 10000 nM; IC50 [9]: > 10000 nM

**Q.** For C[C@@H]1CC[C@@]2(OC1)O[C@H]1C[C@H]3[C@@H]4CC=C5C[C@@H](O[C@@H]6O[C@H](CO)[C@@H](O[C@@H]7O[C@@H](C)[C@H](O)[C@@H](O)[C@H]7O)[C@H](O)[C@H]6O[C@@H]6O[C@@H](C)[C@H](O)[C@@H](O)[C@H]6O)CC[C@]5(C)[C@H]4CC[C@]3(C)[C@H]1[C@@H]2C [DIOSCIN], which IC50 [1] is on record?
**A.** 4.46 µM

**Q.** What about the IC50 [2] of the same compound?
**A.** 1030 nM

**Q.** What about the IC50 [3] of the same compound?
**A.** 700 nM

**Q.** What about the IC50 [4] of the same compound?
**A.** 230 nM

**Q.** And the IC50 [5]?
**A.** 700 nM

**Q.** What about the IC50 [6] of the same compound?
**A.** 560 nM

**Q.** What about the IC50 [7] of the same compound?
**A.** 500 nM

**Q.** What about the IC50 [8] of the same compound?
**A.** 50 nM

**Q.** And the IC50 [9]?
**A.** 810 nM

**Q.** With Nc1ccn([C@@H]2O[C@H](CO)[C@@H](O)C2(F)F)c(=O)n1 [GEMCITABINE] as the compound, how does the IC50 [1] read?
**A.** 0.31 µM

**Q.** What about the IC50 [2] of the same compound?
**A.** 3280 nM

**Q.** And the IC50 [3]?
**A.** 1400 nM

**Q.** And the IC50 [4]?
**A.** 840 nM

**Q.** What about the IC50 [5] of the same compound?
**A.** 2900 nM

**Q.** What about the IC50 [6] of the same compound?
**A.** 1740 nM

**Q.** What about the IC50 [7] of the same compound?
**A.** 1200 nM

**Q.** And the IC50 [8]?
**A.** 1700 nM

**Q.** What about the IC50 [9] of the same compound?
**A.** 5600 nM

**Q.** C[C@@H]1CC[C@@]2(OC1)O[C@H]1C[C@H]3[C@@H]4CC=C5C[C@@H](O[C@@H]6O[C@H](CO)[C@@H](O)[C@H](O[C@@H]7O[C@H](CO)[C@@H](O)[C@H](O)[C@H]7O)[C@H]6O[C@@H]6O[C@@H](C)[C@H](O)[C@@H](O)[C@H]6O)CC[C@]5(C)[C@H]4CC[C@]3(C)[C@H]1[C@@H]2C [GRACILLIN] was tested. Which IC50 [1] did it give?
**A.** 4.3 µM

**Q.** What about the IC50 [2] of the same compound?
**A.** 17500 nM

**Q.** What about the IC50 [3] of the same compound?
**A.** 960 nM

**Q.** What about the IC50 [4] of the same compound?
**A.** 1100 nM

**Q.** And the IC50 [5]?
**A.** 1300 nM

**Q.** What about the IC50 [6] of the same compound?
**A.** 920 nM

**Q.** And the IC50 [7]?
**A.** 1100 nM

**Q.** What about the IC50 [8] of the same compound?
**A.** 1300 nM

**Q.** What about the IC50 [9] of the same compound?
**A.** 700 nM

**Q.** With CO[C@]1(CC[C@@H](C)CO)O[C@H]2C[C@H]3[C@@H]4CC=C5C[C@@H](O[C@@H]6O[C@H](CO)[C@@H](O)[C@H](O[C@@H]7O[C@H](CO)[C@@H](O)[C@H](O)[C@H]7O)[C@H]6O[C@@H]6O[C@@H](C)[C@H](O)[C@@H](O)[C@H]6O)CC[C@]5(C)[C@H]4CC[C@]3(C)[C@H]2[C@@H]1C [ICOGENIN(BETA)] as the compound, how does the IC50 [1] read?
**A.** 0.92 µM

**Q.** And the IC50 [2]?
**A.** 1070 nM

**Q.** And the IC50 [3]?
**A.** 1860 nM

**Q.** What about the IC50 [4] of the same compound?
**A.** 860 nM

**Q.** And the IC50 [10]?
**A.** 2600 nM

**Q.** And the IC50 [5]?
**A.** 1100 nM

**Q.** And the IC50 [6]?
**A.** 930 nM

**Q.** What about the IC50 [7] of the same compound?
**A.** 1000 nM

**Q.** And the IC50 [8]?
**A.** 1100 nM

**Q.** What about the IC50 [9] of the same compound?
**A.** 840 nM

**Q.** How did the IC50 [1] turn out when C[C@@H]1CC[C@@]2(OC1)O[C@H]1C[C@H]3[C@@H]4CC=C5C[C@@H](O[C@@H]6O[C@H](CO)[C@@H](O)[C@H](O[C@@H]7O[C@@H](C)[C@H](O)[C@@H](O)[C@H]7O)[C@H]6O)CC[C@]5(C)[C@H]4CC[C@]3(C)[C@H]1[C@@H]2C [POLYPHILLIN C] was run?
**A.** > 10 µM

**Q.** And the IC50 [2]?
**A.** 3450 nM

**Q.** What about the IC50 [3] of the same compound?
**A.** 2300 nM

**Q.** And the IC50 [4]?
**A.** > 10000 nM

**Q.** And the IC50 [5]?
**A.** > 10000 nM

**Q.** And the IC50 [6]?
**A.** 4160 nM

**Q.** And the IC50 [7]?
**A.** 5400 nM

**Q.** And the IC50 [8]?
**A.** 2700 nM

**Q.** And the IC50 [9]?
**A.** 11800 nM

— ChEMBL document CHEMBL1152907, “Synthesis and cytotoxicities of icogenin analogues with disaccharide residues” (Bioorg Med Chem Lett, 2009)
